Measured values taken from US20030199692A1, “Propanoic acid derivatives that inhibit the binding of integrins to their receptors” (priority 1999, published 2003).

Columns and labels:
α4β1 integrin = target: T1, α4β1 integrin (Homo sapiens, UniProt P05556+P13612); experiment: Inhibition of adhesion of calcein AM-labeled Ramos cells to CS1 (fibronectin) peptide-conjugated ovalbumin; type: cell-based; details: Ramos cell adhesion to CS1-conjugated ovalbumin, 30 minutes at 37° C.
T1 construct: endogenous in cells; host or cells: Ramos cells
T1 sequence (P13612 34-1032): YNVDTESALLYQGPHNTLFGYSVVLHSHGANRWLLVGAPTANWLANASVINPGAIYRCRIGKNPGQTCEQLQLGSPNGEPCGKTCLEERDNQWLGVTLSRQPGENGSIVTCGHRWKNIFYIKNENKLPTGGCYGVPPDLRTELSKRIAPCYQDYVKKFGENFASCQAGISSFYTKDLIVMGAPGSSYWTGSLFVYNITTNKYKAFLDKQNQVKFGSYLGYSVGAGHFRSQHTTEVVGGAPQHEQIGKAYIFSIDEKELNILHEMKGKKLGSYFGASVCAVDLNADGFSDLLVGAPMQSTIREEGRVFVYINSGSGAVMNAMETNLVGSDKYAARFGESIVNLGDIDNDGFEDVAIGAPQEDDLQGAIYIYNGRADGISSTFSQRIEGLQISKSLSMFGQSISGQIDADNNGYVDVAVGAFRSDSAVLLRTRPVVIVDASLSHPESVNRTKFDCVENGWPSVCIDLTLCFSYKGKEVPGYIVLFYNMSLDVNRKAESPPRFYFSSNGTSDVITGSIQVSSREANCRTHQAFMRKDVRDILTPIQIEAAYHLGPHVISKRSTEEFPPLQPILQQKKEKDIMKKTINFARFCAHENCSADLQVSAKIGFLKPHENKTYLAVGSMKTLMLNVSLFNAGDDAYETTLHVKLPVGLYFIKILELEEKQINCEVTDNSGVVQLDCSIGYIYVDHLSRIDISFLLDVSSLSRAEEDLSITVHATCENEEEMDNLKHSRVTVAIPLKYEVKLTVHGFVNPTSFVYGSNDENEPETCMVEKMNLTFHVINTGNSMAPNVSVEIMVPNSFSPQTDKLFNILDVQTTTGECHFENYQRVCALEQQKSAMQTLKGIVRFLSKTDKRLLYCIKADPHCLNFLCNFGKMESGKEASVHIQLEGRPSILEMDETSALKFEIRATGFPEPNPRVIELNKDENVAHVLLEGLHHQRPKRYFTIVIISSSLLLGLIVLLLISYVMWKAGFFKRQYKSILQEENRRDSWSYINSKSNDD
T1 sequence (P05556 21-798): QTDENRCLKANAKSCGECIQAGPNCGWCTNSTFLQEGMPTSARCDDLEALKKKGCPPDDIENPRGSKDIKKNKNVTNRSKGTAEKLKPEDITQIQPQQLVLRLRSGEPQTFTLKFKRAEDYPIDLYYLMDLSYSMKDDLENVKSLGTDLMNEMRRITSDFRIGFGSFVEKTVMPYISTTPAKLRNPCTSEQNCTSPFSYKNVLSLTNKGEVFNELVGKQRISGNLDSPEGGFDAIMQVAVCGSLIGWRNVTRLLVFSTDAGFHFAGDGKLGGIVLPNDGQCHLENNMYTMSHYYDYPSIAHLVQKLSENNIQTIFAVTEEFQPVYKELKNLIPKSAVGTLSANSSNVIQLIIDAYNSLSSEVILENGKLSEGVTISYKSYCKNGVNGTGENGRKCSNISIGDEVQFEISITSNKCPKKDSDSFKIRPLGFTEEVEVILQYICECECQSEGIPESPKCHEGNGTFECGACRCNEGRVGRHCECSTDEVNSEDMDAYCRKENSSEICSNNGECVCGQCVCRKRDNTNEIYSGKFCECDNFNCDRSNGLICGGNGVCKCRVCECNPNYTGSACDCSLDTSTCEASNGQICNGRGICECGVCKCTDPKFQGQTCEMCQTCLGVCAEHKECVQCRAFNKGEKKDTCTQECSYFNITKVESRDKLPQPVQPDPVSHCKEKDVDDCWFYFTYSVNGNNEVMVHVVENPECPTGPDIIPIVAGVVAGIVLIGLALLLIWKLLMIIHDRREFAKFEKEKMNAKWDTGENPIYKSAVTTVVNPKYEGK
Procedure, shortened: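 Calcein AM-labeled Ramos cells (2.5×10^5/well) added with or without compound to plates coated with CS1 peptide-ovalbumin conjugate in TBS containing 1 mM each MgCl2, CaCl2, MnCl2; 30 min at 37° C. Adherent cells lysed and quantified fluorometrically after washes; IC50 as dose for 50% inhibition, or percent inhibition at 100 μM.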

Row | IC50 (α4β1 integrin; Table 4) | Structure (SMILES) | further results
1 | – | CCCCC(C(=O)N[C@@H](CC(=O)O)c1ccc2c(c1)OCO2)N1C(=O)N(Cc2ccccc2)C(=O)C1(C)C (stereo partly drawn) [(3S)-3-(1,3-benzodioxol-5-yl)-3-({2-[5,5-dimethyl-2,4-dioxo-3-(phenylmethyl)tetrahydro-1H-imidazol-1-yl]hexanoyl}amino)propanoic acid] | IC50 (α4β1 integrin; Table 3): 20000 nM; melting point: 53 to 55 °C
2 | 27 nM | CCCCC(C(=O)N[C@@H](CC(=O)O)c1ccc(OC(F)(F)F)cc1)n1cc(C)cc(Cc2ccccc2)c1=O (stereo partly drawn) [(3S)-3-{[2-(3-benzyl-5-methyl-2-oxopyridin-1(2H)-yl)hexanoyl]amino}-3-[4-(trifluoromethoxy)phenyl]propanoic acid] | –
3 | 10 nM | CCCCC(C(=O)N[C@@H](CC(=O)O)c1ccccc1)n1cc(C)cc(Cc2ccccc2)c1=O (stereo partly drawn) [(3S)-3-{[2-(3-benzyl-5-methyl-2-oxopyridin-1(2H)-yl)hexanoyl]amino}-3-phenylpropanoic acid] | –
4 | 200 nM | CCCC[C@@H](C(=O)N[C@@H](CC(=O)O)c1ccc(-c2c(OC)cccc2OC)cc1)n1cc(C)cc(Cc2ccccc2)c1=O [(3S)-3-{[(2S)-2-(3-benzyl-5-methyl-2-oxopyridin-1(2H)-yl)hexanoyl]amino}-3-(2′,6′-dimethoxy-1,1′-biphenyl-4-yl)propanoic acid] | –
5 | 10 nM | CCCC[C@@H](C(=O)N[C@@H](CC(=O)O)c1cc(OC)cc(OC)c1)n1cc(C)cc(Cc2ccccc2)c1=O [(3S)-3-{[(2S)-2-(3-benzyl-5-methyl-2-oxopyridin-1(2H)-yl)hexanoyl]amino}-3-(3,5-dimethoxyphenyl)propanoic acid] | –
6 | 17 nM | CCCC[C@@H](C(=O)N[C@@H](CC(=O)O)c1ccc(OC)c(F)c1)n1cc(C)cc(Cc2ccccc2)c1=O [(3S)-3-{[(2S)-2-(3-benzyl-5-methyl-2-oxopyridin-1(2H)-yl)hexanoyl]amino}-3-(3-fluoro-4-methoxyphenyl)propanoic acid] | –
7 | 33 nM | CCCCC(C(=O)N[C@@H](CC(=O)O)c1cc(OC)c(OC)c(OC)c1)n1cc(C)cc(Cc2ccccc2)c1=O (stereo partly drawn) [(3S)-3-{]2-(3-benzyl-5-methyl-2-oxopyridin-1(2H)-yl)hexanoyl]amino}-3-(3,4,5-trimethoxyphenyl)propanoic acid] | –
8 | – | CCCC[C@@H](C(=O)N[C@@H](CC(=O)O)c1ccc2c(c1)OCO2)n1cc(C)cc(Cc2ccccc2)c1=O [Compound 10] | IC50 (α4β1 integrin; Table 1): 3 nM
